According to patent publication US20250302746A1, “METHOD FOR PRODUCING EMULSIFIED COMPOSITION” (Daicel Corporation, priority 2022, published 2025):

Experiments:
[1] = Test Example 1: transmittance of emulsified composition (660 nm, optical path 10 mm); type: physicochemical; conditions: balance glycerol, 10000 rpm
Experimental: (§1) The transmittance of the emulsified composition produced in this example was determined as a transmittance for light having a wave length of 660 nm at a measurement optical path length of 10 mm using an ultraviolet-visible spectrophotometer UV-1800 (manufactured by Shimadzu Corporation). In the following test, a case where the transmittance was less than 40% was indicated by “C”, a case where the transmittance was 40% or greater and less than 80% was indicated by “B”, and a case where the transmittance was 80% or greater was indicated by “A”.
A solution having a composition of parts by weight shown in Table 1 (a solution in which the balance is glycerol and the total is 100 parts by weight) was prepared and heated at a heating temperature shown in Table 1 for 3 minutes using a block heater. During being heated, the solution was mixed using a polytron homogenizer at 10000 rpm. Thereafter, the solution was allowed to stand at room temperature (about 25° C.) and the temperature of the solution was lowered to room temperature (about 25° C.) to produce an emulsified composition, and the transmittance was measured.

[2] = Test Example 2: transmittance of emulsified composition (660 nm, optical path 10 mm); type: physicochemical; conditions: balance glycerol, heated 120° C. 3 min, 15000 rpm
Experimental: as §1
A solution having a composition of parts by weight shown in Table 2 (a solution in which the balance is glycerol and the total is 100 parts by weight) was prepared and heated at 120° C. for 3 minutes using a block heater. During being heated, the solution was mixed using a polytron homogenizer at 15000 rpm. Thereafter, the solution was allowed to stand at room temperature (about 25° C.) and the temperature of the solution was lowered to room temperature (about 25° C.) to produce an emulsified composition, and the transmittance was measured.

[3] = Test Example 3: transmittance of emulsified composition (660 nm, optical path 10 mm); type: physicochemical; conditions: balance glycerol, 15000 rpm
Experimental: as §1
A solution having a composition of parts by weight shown in Table 3 (a solution in which the balance is glycerol and the total is 100 parts by weight) was prepared and heated at a heating temperature shown in Table 3 for 3 minutes using a block heater. During being heated, the solution was mixed using a polytron homogenizer at 15000 rpm. Thereafter, the solution was allowed to stand at room temperature (about 25° C.) and the temperature of the solution was lowered to room temperature (about 25° C.) to produce an emulsified composition, and the transmittance was measured.

[4] = cited from earlier work
[5] = Urolithin A 0.1, Decaglyn 1-LF (HLB 15.5) 5 parts by weight, heated 100° C. 3 min
[6] = Urolithin A 0.1, Decaglyn 1-LF (HLB 15.5) 5 parts by weight, heated 120° C. 3 min
[7] = Urolithin A 0.1, RYOTO polyglyester L-7D (HLB 17.0) 5 parts by weight, heated 100° C. 3 min
[8] = Urolithin A 0.1, RYOTO polyglyester L-7D (HLB 17.0) 5 parts by weight, heated 120° C. 3 min

O=c1oc2cc(O)ccc2c2ccc(O)cc12 [Urolithin A, urolithin A]
Transmittance results ([1]; Urolithin A 0.1, Decaglyn 1-LF (HLB 15.5) 5 parts by weight, heated 80° C. 3 min): C (the transmittance was less than 40%) | Transmittance results [1, 5]: C (the transmittance was less than 40%) | Transmittance results [1, 6]: B (the transmittance was 40% or greater and less than 80%) | Transmittance results ([1]; Urolithin A 0.1, Decaglyn 1-MF (HLB 14.0) 5 parts by weight, heated 80° C. 3 min): C (the transmittance was less than 40%) | Transmittance results ([1]; Urolithin A 0.1, Decaglyn 1-MF (HLB 14.0) 5 parts by weight, heated 100° C. 3 min): C (the transmittance was less than 40%) | Transmittance results ([1]; Urolithin A 0.1, Decaglyn 1-MF (HLB 14.0) 5 parts by weight, heated 120° C. 3 min): B (the transmittance was 40% or greater and less than 80%) | Transmittance results ([1]; Urolithin A 0.1, Decaglyn 1-OVF (HLB 12.0) 5 parts by weight, heated 80° C. 3 min): C (the transmittance was less than 40%) | Transmittance results ([1]; Urolithin A 0.1, Decaglyn 1-OVF (HLB 12.0) 5 parts by weight, heated 100° C. 3 min): C (the transmittance was less than 40%) | Transmittance results ([1]; Urolithin A 0.1, Decaglyn 1-OVF (HLB 12.0) 5 parts by weight, heated 120° C. 3 min): B (the transmittance was 40% or greater and less than 80%) | Transmittance results ([1]; Urolithin A 0.1, RYOTO polyglyester L-7D (HLB 17.0) 5 parts by weight, heated 80° C. 3 min): C (the transmittance was less than 40%) | Transmittance results [1, 7]: C (the transmittance was less than 40%) | Transmittance results [1, 8]: A (the transmittance was 80% or greater) | Transmittance results ([1]; Urolithin A 0.1, RYOTO polyglyester O-15D (HLB 13.0) 5 parts by weight, heated 80° C. 3 min): C (the transmittance was less than 40%) | Transmittance results ([1]; Urolithin A 0.1, RYOTO polyglyester O-15D (HLB 13.0) 5 parts by weight, heated 100° C. 3 min): C (the transmittance was less than 40%) | Transmittance results ([1]; Urolithin A 0.1, RYOTO polyglyester O-15D (HLB 13.0) 5 parts by weight, heated 120° C. 3 min): B (the transmittance was 40% or greater and less than 80%) | Transmittance results ([1]; Urolithin A 0.1, RYOTO polyglyester O-50D (HLB 7) 5 parts by weight, heated 80° C. 3 min): C (the transmittance was less than 40%) | Transmittance results ([1]; Urolithin A 0.1, RYOTO polyglyester O-50D (HLB 7) 5 parts by weight, heated 100° C. 3 min): C (the transmittance was less than 40%) | Transmittance results ([1]; Urolithin A 0.1, RYOTO polyglyester O-50D (HLB 7) 5 parts by weight, heated 120° C. 3 min): C (the transmittance was less than 40%) | Transmittance results ([1]; Urolithin A 0.1, Sugar ester S-1170 (HLB about 11) 5 parts by weight, heated 80° C. 3 min): C (the transmittance was less than 40%) | Transmittance results ([1]; Urolithin A 0.1, Sugar ester S-1170 (HLB about 11) 5 parts by weight, heated 100° C. 3 min): C (the transmittance was less than 40%) | Transmittance results ([1]; Urolithin A 0.1, Sugar ester S-1170 (HLB about 11) 5 parts by weight, heated 120° C. 3 min): C (the transmittance was less than 40%) | Transmittance results ([2]; Urolithin A 0.2, Decaglyn 1-LF (HLB 15.5) 5 parts by weight): C (the transmittance was less than 40%) | Transmittance results ([2]; Urolithin A 0.2, Decaglyn 1-LF (HLB 15.5) 10 parts by weight): B (the transmittance was 40% or greater and less than 80%) | Transmittance results ([2]; Urolithin A 0.2, Decaglyn 1-LF (HLB 15.5) 50 parts by weight): A (the transmittance was 80% or greater) | Transmittance results ([2]; Urolithin A 0.2, RYOTO polyglyester L-7D (HLB 17.0) 5 parts by weight): C (the transmittance was less than 40%) | Transmittance results ([2]; Urolithin A 0.2, RYOTO polyglyester L-7D (HLB 17.0) 10 parts by weight): B (the transmittance was 40% or greater and less than 80%) | Transmittance results ([2]; Urolithin A 0.2, RYOTO polyglyester L-7D (HLB 17.0) 50 parts by weight): A (the transmittance was 80% or greater) | Transmittance results ([2]; Urolithin A 0.5, RYOTO polyglyester L-7D (HLB 17.0) 50 parts by weight): A (the transmittance was 80% or greater) | Transmittance results [3, 5]: C (the transmittance was less than 40%) | Transmittance results ([3]; Urolithin A 0.1, Decaglyn 1-LF (HLB 15.5) 5 parts by weight, heated 105° C. 3 min): C (the transmittance was less than 40%) | Transmittance results [3, 6]: B (the transmittance was 40% or greater and less than 80%) | Transmittance results ([3]; Urolithin A 0.1, Decaglyn 1-LF (HLB 15.5) 50 parts by weight, heated 100° C. 3 min): C (the transmittance was less than 40%) | Transmittance results ([3]; Urolithin A 0.1, Decaglyn 1-LF (HLB 15.5) 50 parts by weight, heated 105° C. 3 min): A (the transmittance was 80% or greater) | Transmittance results ([3]; Urolithin A 0.1, Decaglyn 1-LF (HLB 15.5) 50 parts by weight, heated 120° C. 3 min): A (the transmittance was 80% or greater) | Transmittance results [3, 7]: C (the transmittance was less than 40%) | Transmittance results ([3]; Urolithin A 0.1, RYOTO polyglyester L-7D (HLB 17.0) 5 parts by weight, heated 105° C. 3 min): C (the transmittance was less than 40%) | Transmittance results [3, 8]: A (the transmittance was 80% or greater) | Transmittance results ([3]; Urolithin A 0.1, RYOTO polyglyester L-7D (HLB 17.0) 50 parts by weight, heated 100° C. 3 min): C (the transmittance was less than 40%) | Transmittance results ([3]; Urolithin A 0.1, RYOTO polyglyester L-7D (HLB 17.0) 50 parts by weight, heated 105° C. 3 min): A (the transmittance was 80% or greater) | Transmittance results ([3]; Urolithin A 0.1, RYOTO polyglyester L-7D (HLB 17.0) 50 parts by weight, heated 120° C. 3 min): A (the transmittance was 80% or greater) | oil solubility ([4]; background statement): low | solubility in high-temperature vegetable oil or the like ([4]; background statement): not soluble | solubility in water ([4]; water at 30° C. (Patent Document 4)): about 3.5 mg/L
